The values below come from patent publication US20050096360A1, “Inhibitors of semicarbazide-sensitive amine oxidase (SSAO) and VAP-1 mediated adhesion useful for treatment of diseases” (priority 2003, published 2005).

Like-named read-outs stand apart in the source and are kept apart here.

Data set [1] has as its system adhesion of human PBMCs to rat HEC transfected with full-length human SSAO/VAP-1. Briefly: In vitro adhesion of PBMCs to SSAO/VAP-1-transfected high endothelial cells. The format is cell-based. Particulars: inhibitors at IC100 concentrations, antibody 10 μg/ml; 3 hr at 37° C. As for the experimental part:
The studies in this Example were carried out in order to determine whether SSAO/VAP-1 transfected into endothelial cells retained the adhesion function and whether it played any role in the adhesion of freshly isolated human PBMCs to these cells. Moreover, the studies were also designed to determine whether blocking of SSAO/VAP-1 would have an impact on the level of adhesion between these two cell types. Adhesion assays were performed using cells labeled with the fluorescent dye Calcein-AM (Molecular Probes, OR, USA) as per the manufacturer's instructions. Briefly, rat lymph node high endothelial cells (HEC; isolation and culture was described in Ager, A. (1987) J. Cell Sci. 87: 133) were plated overnight in 96-well plates (2,000 cells/well). PBMCs (peripheral blood mononuclear cells) (1×10^7) were labeled with 1 ml of 10 μM Calcein-AM for 1 hr at 37° C., washed three times with RPMI, and added to the 96 well plates containing monolayers of HEC cells mock-transfected or transfected with full-length human SSAO/VAP-1 (60,000 PBMCs were plated per well containing 2,000 HEC cells). Adhesion was carried out for 3 hr at 37° C. Non-adherent cells were removed by washing three times with RPMI and fluorescence was measured in a fluorescence plate reader at an excitation wavelength of 485 nm and emission wavelength of 530 nm. Several controls were included, such as HEC cells and PBMCs (labeled and unlabeled) alone.
(§1) These studies were repeated using the adhesion assay as described above to evaluate the inhibitors of the invention. Adhesion blockers used included an anti-human VAP-1 monoclonal antibody (Serotec, Oxford, UK), neuramidase (a sialidase, because SSAO/VAP-1 is a sialoglycoprotein; Sigma), and several function-blocking antibodies to rat adhesion molecules (CD31-PECAM, CD54-ICAM-1, […]-P Selectin). […] Antibodies (10 μg/ml) and neuramidase (5 mU) were incubated with the HECs for 30 min at 37° C.; excess antibody was washed away prior to the addition of the labeled PBMCs. Small-molecule inhibitors were pre-incubated the same way at IC100 concentrations, but the amounts present in the supernatant were not washed away to preserve the IC100 concentration during the adhesion step.

Data set [2] in a line: Acute toxicity studies in mice. Format: in vivo. Particulars: female, C57B1/6, mouse, in vivo, Day 7 values. On the procedure:
(§2) Intraperitoneal (i.p.) and intravenous (i.v.) LD50 values for the compounds of Examples 8 and 10, as well as mofegiline, the allylamine compound described in Example 18, were determined in mice. Six-week old C57B1/6 female mice were divided in groups of five and administered a single i.p or i.v. injection of compound dissolved in PBS (10-100 mg/kg in 100 ul i.v.; 30-500 mg/kg in 200 ul i.p.). Control groups were administered the same volume of PBS i.p. or i.v. Appearance and overt behavior were noted daily, and body weight was measured before compound administration (Day 1) and on Days, 3, 5 and 7. After seven days, animals were euthanized and their liver, spleen and kidneys weighted.
(§3) Acute toxicity effects for mofegiline included tremors (40 mg/kg i.v.; 100 mg/kg i.p.) and clonic convulsions and labored breathing (100 mg/kg i.v.; 200 mg/kg i.p.). […] All deaths occurred within 24 hours after drug administration. […] Thus, there is no indication of the cause of death for any of the compounds tested.

For a further data set, the system named is C57B1/6 female mice. Briefly: Acute toxicity studies in mice. The format is in vivo. On the procedure:
as §2, §3

The next data set concerns EAE in C57BL/6 mice. Briefly: Experimental autoimmune encephalomyelitis (EAE), MOG 35-55. Format: in vivo. As for the experimental part:
SSAO/VAP-1 is expressed on the endothelium of inflamed tissues/organs including brain and spinal cord. Its ability to support lymphocyte transendothelial migration may be an important systemic function of SSAO/VAP-1 in inflammatory diseases such as multiple sclerosis and Alzheimer's disease. An analysis of the use of SSAO inhibitors to treat inflammatory disease of the central nervous system (CNS) was performed through the use of an experimental autoimmune encephalomyelitis model (EAE) in C57BL/6 mice. EAE in rodents is a well-characterized and reproducible animal model of multiple sclerosis in human (Benson J. M. et al. (2000) J. Clin. Invest. 106:1031). Multiple sclerosis is a chronic immune-mediated disease of the CNS characterized by pachy perivenular inflammatory infiltrates in areas of demyelination and axonal loss. As an animal model, EAE can be induced in mice by immunization with encephalitogenic myelin antigens in the presence of adjuvant. The pathogenesis of EAE comprises presentation of myelin antigens to T cells, migration of activated T cells to the CNS, and development of inflammation and/or demyelination upon recognition of the same antigens.
Thirty female C57BL/6 mice were immunized subcutaneously (s.c). with myelin oligodendrocyte glycoprotein 35-55 (MOG peptide 35-55) in Complete Freund Adjuvant (CFA) on day 0, followed by i.p. injections of pertussis toxin (one pertussis toxin injection on day 0, a second pertussis toxin injection on day 2). Groups of 10 mice received either the allylamine compound mofegiline (AA, 10 mg/kg/dose, twice daily for 18 consecutive days), methotrexate (2.5 mg/kg/day, every other day (Mon., Weds., Fri.) till day 18) or vehicle control (twice/day for 18 consecutive days) all-starting from one day after the immunization and all administered i.p. Then animals were monitored for body weight, signs of paralysis and death according to a 0-5 scale of scoring system as follows: 1=limp tail or waddling gait with tail tonicity; 2=waddling gait with limp tail (ataxia); 2.5=ataxia with partial limb paralysis; 3=full paralysis of one limb; 3.5=full paralysis of one limb with partial paralysis of second limb; 4=full paralysis of two limbs; 4.5=moribund; 5=death. Results are shown in FIG. 2A, FIG. 2B, and FIG. 2C. […] (p=0.04 by repeated measure analysis to assess the treatment effect. Proper polynomial transformation, with the spacing corresponding to the collection days, was applied to test the time effect). Statistically significant differences in diseases severity between the AA and vehicle-treated groups, continued even after stopping compound administration and were observed until the end of the study (d25) .

A further data set concerns SSAO. Briefly: IC100 concentrations of SSAO inhibitors used in the adhesion assay. Format: biochemical. Particulars: FIG. 7 legend.
Source text: FIG. 7 depicts the effect of blockage of SSAO/VAP-1 on binding between peripheral blood mononuclear cells (PBMCs) and high endothelial cells (HEC). FIG. 7A is a control experiment showing the effect of various compounds used for treatment on the adhesion of PBMCs to mock-transfected high endothelial cells; a non-treated control is included for comparison (MNT). FIG. 7B is a control experiment showing the effect of various compounds used for treatment on the adhesion of PBMCs to high endothelial cells transfected with VAP-1; a non-treated control is included for comparison (VNT).
as §1

For the molecule `C#CCN(C)CCCOc1ccc(Cl)cc1Cl` [Clorgyline, clorgyline], the “number of PBMCs adherent to SSAO/VAP-1 transfected HECs” value in data set [1] is recorded as “no effect”.

For `NC/C(=C/F)CCc1ccc(F)cc1` [Mofegiline, mofegiline, reference compound], the LD50 – broadly, the dose expected to kill half of the subjects tested – at 7 days in data set [2] (ip, single i.p. injection, read-out: LD50 intraperitoneal) turned out to be 200 mg/kg; in data set [2] (iv, single i.v. injection, read-out: LD50 intravenous), 70 mg/kg. The dose causing tremors with C57B1/6 female mice (i.p.) is 100 mg/kg; in the data set with C57B1/6 female mice (i.v.) it was 40 mg/kg. In addition, in the data set with C57B1/6 female mice (i.p. (see Table 2)), the “dose causing convulsions and labored breathing” value was 200 mg/kg. In the data set with C57B1/6 female mice (i.v.), the “dose causing clonic convulsions and labored breathing” value is recorded as 100 mg/kg. The “disease severity (clinical score)” value with EAE in C57BL/6 mice (10 mg/kg/dose i.p. twice daily for 18 days, p=0.04 vs vehicle) is recorded as “statistically significant reduction”. Also, the “disease incidence (mice affected)” value with EAE in C57BL/6 mice (10 mg/kg/dose i.p. twice daily, dosing period up to day 18, vehicle 80%) is reported as 50%. In the data set on EAE in C57BL/6 mice (10 mg/kg/dose i.p. twice daily, dosing period, p=0.04), the body weight loss entry is listed as “prevented”.

Turning to `C#CCN(C)Cc1ccccc1` [Pargyline, pargyline], the “number of PBMCs adherent to SSAO/VAP-1 transfected HECs” value in data set [1] is “no effect”.

Take `NNC(N)=O` [Semicarbazide, semicarbazide]: the “IC100 (SSAO)” value in the data set with SSAO came to 500 µM.
